SMILES strings stand for the structures.

This note sets out measurements from patent EP0248972A2, “Ammoniummonofluorophosphates, process for their preparation and their use” (Benckiser-Knapsack GmbH, priority 1986, dated 1987).

This data set is described as follows: Behaviour with water (emulsion formation). In kind it is physicochemical. Particulars: mit Wasser bei 20 C.

Regarding `CCCCCCCC/C=C\CCCCCCCCNCCCN` [N-Oleyl-1,3-diammoniumpropanmonofluorophosphat], the “Verhalten mit Wasser” value is given as “stabile Emulsion”.
